# Measured values reported in ChEMBL document CHEMBL1201862, “PubChem BioAssay data set” (2004).
# Activity calls are given as the source filed them.
# How the values were obtained:
# [1] = target: Potassium channel subfamily K member 9 (Homo sapiens, UniProt Q9NPC2); assay: TASK3 (KCNK9) channel inhibitors, thallium flux, SAR follow-up, selectivity assay for TASK1 inhibitor project, cell-based, FluxOR thallium flux, concentration-response (AID 652211); format: functional;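 note: potency is for inhibitors of the channel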
# Potassium channel subfamily K member 9, sequence (Q9NPC2 whole entry, the tested form may be a part): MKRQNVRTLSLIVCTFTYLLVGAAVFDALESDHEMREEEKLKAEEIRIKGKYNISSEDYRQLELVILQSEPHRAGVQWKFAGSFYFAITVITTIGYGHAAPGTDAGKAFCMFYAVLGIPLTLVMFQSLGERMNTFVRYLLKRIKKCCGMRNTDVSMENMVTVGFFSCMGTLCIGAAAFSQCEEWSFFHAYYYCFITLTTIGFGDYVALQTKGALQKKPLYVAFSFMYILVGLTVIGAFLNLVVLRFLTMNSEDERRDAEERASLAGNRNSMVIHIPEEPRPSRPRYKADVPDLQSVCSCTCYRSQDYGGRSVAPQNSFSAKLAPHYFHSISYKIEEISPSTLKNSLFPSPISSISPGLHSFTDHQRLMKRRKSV
# [2] = target: Potassium channel subfamily K member 3 (Rattus norvegicus, UniProt O54912); assay: SAR analysis for the identification of selective inhibitors of the two-pore domain potassium channel TASK1(KCNK3):Automated Electrophysiology.; format: functional
# Potassium channel subfamily K member 3 (Rattus norvegicus, UniProt O54912), sequence (O54912 whole entry, the tested form may be a part): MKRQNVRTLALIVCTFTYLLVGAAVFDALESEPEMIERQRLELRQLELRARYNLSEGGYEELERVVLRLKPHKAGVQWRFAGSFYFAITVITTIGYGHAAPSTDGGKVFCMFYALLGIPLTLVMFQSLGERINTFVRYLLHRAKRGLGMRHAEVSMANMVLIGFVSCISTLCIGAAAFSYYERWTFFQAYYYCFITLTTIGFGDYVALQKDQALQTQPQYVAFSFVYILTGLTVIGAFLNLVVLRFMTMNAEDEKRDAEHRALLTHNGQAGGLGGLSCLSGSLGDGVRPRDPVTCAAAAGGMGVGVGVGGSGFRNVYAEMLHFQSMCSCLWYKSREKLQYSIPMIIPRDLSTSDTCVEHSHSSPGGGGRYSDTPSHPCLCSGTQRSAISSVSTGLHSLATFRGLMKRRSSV
# [3] = target: Potassium channel subfamily K member 3 (Homo sapiens, UniProt O14649); assay: TASK1 (KCNK3) potassium channel inhibitors, SAR follow-up, CHO cells, FluxOR thallium flux (AID 652212); format: functional
# Potassium channel subfamily K member 3 (Homo sapiens, UniProt O14649), sequence (O14649 whole entry): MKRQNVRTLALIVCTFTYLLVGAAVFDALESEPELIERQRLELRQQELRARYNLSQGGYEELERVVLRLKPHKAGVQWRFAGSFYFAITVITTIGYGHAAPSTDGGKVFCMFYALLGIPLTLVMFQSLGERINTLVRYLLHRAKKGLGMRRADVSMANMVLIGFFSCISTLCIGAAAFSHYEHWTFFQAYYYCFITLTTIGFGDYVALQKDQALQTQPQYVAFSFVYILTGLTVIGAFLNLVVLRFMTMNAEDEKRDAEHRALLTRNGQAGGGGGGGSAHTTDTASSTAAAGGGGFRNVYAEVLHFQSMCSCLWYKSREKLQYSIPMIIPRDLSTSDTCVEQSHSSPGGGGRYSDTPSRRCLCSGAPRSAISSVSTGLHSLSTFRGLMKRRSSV
# Mucolipin-3 = target: T1, Mucolipin-3 (Homo sapiens, UniProt Q8TDD5); assay: Dose response cell-based high-throughput screening assay for agonists of the transient receptor potential channel ML3 (TRPML3). [Related pubchem assays: 1526, 1424, 1448 ]; format: functional
# T1 sequence (Q8TDD5 whole entry): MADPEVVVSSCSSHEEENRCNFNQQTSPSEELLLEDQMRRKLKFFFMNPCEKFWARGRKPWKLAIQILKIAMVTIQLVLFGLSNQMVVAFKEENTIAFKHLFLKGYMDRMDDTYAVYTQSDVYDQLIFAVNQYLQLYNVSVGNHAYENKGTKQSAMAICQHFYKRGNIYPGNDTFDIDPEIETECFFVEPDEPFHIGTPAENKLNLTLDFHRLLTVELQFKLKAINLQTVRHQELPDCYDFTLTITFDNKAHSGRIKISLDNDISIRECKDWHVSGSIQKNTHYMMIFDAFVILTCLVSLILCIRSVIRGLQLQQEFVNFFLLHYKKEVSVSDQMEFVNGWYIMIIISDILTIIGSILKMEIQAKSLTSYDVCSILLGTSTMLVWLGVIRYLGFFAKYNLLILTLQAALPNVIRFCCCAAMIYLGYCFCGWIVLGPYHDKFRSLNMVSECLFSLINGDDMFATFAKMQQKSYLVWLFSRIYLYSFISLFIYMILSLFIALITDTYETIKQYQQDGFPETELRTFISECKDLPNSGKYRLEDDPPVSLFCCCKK
# Ion channel NompC = Ion channel NompC (Danio rerio, UniProt Q7T1G6); assay: Fluorescence counterscreen assay for TRPML3 agonists: dose response cell-based high-throughput screening assay to identify agonists of the transient receptor potential channel N1 (TRPN1). [Related pubchem assays: 1526, 1424, 1448 ]; format: functional
# Ion channel NompC, sequence (Q7T1G6 whole entry): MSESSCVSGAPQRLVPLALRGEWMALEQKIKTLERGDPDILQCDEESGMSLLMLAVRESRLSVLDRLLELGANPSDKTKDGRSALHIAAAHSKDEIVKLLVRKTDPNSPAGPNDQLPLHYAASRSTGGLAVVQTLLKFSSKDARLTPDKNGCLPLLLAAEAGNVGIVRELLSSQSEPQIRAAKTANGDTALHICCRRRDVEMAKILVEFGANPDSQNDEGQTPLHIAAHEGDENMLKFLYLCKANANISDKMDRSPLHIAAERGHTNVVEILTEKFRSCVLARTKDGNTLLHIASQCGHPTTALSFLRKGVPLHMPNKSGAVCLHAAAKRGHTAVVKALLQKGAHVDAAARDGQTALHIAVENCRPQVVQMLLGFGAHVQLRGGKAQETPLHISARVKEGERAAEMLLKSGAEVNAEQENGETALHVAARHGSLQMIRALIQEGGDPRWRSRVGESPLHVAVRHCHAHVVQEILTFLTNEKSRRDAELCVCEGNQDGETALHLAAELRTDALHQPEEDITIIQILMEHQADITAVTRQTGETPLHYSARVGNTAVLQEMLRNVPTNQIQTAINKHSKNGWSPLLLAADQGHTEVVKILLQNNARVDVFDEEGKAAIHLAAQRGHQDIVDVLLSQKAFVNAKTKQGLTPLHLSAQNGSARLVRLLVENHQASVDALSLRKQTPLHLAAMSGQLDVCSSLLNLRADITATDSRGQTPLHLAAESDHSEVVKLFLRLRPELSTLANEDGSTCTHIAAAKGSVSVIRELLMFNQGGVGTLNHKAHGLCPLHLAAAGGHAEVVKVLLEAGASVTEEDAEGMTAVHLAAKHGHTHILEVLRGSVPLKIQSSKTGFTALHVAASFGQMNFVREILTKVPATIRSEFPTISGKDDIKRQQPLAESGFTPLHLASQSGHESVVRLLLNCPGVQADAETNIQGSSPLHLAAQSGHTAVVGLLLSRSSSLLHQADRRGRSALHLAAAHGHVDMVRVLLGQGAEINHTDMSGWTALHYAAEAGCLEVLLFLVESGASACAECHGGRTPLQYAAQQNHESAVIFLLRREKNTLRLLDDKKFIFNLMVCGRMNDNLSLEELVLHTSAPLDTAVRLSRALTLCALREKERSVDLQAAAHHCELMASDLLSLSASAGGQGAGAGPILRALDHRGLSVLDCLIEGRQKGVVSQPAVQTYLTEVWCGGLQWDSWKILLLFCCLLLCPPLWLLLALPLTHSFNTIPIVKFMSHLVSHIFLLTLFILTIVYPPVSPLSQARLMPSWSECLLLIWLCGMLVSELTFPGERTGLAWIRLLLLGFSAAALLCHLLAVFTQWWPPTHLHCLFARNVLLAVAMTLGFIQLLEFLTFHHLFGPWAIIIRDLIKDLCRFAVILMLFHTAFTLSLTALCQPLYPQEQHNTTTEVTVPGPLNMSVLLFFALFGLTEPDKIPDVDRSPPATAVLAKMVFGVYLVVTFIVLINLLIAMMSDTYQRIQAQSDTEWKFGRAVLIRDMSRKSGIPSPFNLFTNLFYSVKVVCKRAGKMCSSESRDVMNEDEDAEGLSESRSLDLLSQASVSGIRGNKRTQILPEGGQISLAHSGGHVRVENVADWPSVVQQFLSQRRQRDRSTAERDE
# [4] = Luminescence Cell-Based Dose Retest to Confirm Inhibitors of Cancer Stem Cells. [Related pubchem assays (depositor defined):AID2717, AID2721]; format: functional; details: Homo sapiens
# [5] = target: Disintegrin and metalloproteinase domain-containing protein 17 (Homo sapiens, UniProt P78536); assay: ADAM17 protease inhibitors, dose response, counter-screen for ADAM10 exosite inhibitor project, biochemical, quenched FRET substrate (AID 743253)
# Disintegrin and metalloproteinase domain-containing protein 17, sequence (P78536 whole entry, the tested form may be a part): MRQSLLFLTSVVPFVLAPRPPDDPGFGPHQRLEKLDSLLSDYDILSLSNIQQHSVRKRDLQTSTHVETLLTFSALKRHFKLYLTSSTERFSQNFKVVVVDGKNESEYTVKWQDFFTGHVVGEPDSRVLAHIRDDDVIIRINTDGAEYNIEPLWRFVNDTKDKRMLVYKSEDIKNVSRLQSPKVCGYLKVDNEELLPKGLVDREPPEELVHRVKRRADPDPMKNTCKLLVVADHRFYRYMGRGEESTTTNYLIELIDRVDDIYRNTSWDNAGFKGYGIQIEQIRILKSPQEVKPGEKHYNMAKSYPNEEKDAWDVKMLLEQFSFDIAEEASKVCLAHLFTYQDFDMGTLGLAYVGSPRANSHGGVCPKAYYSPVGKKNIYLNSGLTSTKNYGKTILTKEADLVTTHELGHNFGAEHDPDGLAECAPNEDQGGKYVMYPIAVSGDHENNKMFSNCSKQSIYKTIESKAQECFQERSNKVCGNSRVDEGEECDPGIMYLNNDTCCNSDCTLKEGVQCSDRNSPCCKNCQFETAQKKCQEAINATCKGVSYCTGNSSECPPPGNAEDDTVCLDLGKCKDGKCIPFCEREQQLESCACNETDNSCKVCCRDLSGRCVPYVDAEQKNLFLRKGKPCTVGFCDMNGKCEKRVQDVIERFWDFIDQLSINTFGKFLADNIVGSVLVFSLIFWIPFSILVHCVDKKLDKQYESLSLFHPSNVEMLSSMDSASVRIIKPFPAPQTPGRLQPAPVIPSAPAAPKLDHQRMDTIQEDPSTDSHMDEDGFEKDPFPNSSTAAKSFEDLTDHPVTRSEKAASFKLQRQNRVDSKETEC
# [6] = inhibitors of intracellular T. cruzi replication, confirmation, NIH3T3 host cells, beta-gal luminescence (AID 2044); format: functional, cell-based;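 note: intracellular parasites grown in NIH/3T3 mouse fibroblasts as host cells; luminescent beta-galactosidase reporter signal from transgenic T. cruzi replicating inside host cells; inhibitors lower the luminescence signal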
# [7] = cytotoxicity toward NIH3T3 fibroblasts, dose response, counter-screen, cell-based, ATP luminescence, mouse fibroblasts (AID 2010); format: functional;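 note: cells exposed to compound for about 90 hours before reading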
# Exodeoxyribonuclease V = target: T2, Exodeoxyribonuclease V (Escherichia coli (strain K12), UniProt P04993+P07648+P08394); assay: E. coli RecBCD inhibitors, dose response, counter-screen for AddAB inhibitor project, absorbance, V66 E. coli, mutant T4 phage (AID 492957); format: functional, cell-based, Escherichia coli str. K-12 substr. MG1655
# T2 sequence (P04993 whole entry): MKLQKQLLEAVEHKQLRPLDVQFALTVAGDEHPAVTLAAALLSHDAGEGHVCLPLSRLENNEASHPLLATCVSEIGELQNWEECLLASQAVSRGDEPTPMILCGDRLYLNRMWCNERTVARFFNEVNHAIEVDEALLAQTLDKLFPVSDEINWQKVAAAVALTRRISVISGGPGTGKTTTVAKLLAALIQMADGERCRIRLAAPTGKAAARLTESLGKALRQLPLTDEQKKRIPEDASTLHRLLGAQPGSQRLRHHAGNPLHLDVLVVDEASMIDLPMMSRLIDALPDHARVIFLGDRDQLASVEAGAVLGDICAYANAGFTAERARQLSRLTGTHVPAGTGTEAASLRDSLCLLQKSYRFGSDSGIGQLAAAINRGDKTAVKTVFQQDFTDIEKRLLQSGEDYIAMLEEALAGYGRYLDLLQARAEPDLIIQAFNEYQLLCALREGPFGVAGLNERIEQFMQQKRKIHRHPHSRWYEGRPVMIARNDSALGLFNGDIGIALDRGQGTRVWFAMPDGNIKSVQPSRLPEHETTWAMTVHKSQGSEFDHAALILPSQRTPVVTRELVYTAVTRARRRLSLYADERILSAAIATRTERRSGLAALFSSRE
# T2 sequence (P07648 whole entry): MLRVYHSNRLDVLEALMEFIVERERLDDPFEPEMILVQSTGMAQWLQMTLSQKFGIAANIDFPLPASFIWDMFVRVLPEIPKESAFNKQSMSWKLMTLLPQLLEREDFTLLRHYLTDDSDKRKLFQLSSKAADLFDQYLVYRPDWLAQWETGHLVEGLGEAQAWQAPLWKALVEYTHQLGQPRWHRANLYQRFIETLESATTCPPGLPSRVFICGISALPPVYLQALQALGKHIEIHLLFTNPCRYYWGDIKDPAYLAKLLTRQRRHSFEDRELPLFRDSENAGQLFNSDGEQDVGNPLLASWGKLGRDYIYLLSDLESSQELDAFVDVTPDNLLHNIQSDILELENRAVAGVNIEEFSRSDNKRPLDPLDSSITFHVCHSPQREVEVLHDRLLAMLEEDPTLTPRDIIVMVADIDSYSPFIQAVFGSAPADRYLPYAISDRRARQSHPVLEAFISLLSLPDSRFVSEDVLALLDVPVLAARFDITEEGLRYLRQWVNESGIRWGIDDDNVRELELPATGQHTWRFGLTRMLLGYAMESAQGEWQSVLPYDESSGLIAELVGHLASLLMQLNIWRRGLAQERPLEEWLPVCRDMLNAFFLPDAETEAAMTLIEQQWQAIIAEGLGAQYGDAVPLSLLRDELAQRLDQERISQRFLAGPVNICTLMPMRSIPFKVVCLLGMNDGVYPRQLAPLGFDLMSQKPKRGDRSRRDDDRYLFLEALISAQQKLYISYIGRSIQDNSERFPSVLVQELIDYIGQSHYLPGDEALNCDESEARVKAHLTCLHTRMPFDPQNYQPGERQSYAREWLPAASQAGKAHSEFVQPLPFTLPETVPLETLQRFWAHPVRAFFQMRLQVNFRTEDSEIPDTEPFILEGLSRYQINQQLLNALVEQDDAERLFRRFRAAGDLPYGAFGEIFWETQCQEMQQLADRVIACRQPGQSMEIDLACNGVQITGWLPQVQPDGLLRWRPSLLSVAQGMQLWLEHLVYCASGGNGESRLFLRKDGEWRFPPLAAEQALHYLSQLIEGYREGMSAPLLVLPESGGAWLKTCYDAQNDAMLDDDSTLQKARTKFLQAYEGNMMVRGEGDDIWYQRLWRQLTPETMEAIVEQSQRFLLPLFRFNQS
# T2 sequence (P08394 whole entry): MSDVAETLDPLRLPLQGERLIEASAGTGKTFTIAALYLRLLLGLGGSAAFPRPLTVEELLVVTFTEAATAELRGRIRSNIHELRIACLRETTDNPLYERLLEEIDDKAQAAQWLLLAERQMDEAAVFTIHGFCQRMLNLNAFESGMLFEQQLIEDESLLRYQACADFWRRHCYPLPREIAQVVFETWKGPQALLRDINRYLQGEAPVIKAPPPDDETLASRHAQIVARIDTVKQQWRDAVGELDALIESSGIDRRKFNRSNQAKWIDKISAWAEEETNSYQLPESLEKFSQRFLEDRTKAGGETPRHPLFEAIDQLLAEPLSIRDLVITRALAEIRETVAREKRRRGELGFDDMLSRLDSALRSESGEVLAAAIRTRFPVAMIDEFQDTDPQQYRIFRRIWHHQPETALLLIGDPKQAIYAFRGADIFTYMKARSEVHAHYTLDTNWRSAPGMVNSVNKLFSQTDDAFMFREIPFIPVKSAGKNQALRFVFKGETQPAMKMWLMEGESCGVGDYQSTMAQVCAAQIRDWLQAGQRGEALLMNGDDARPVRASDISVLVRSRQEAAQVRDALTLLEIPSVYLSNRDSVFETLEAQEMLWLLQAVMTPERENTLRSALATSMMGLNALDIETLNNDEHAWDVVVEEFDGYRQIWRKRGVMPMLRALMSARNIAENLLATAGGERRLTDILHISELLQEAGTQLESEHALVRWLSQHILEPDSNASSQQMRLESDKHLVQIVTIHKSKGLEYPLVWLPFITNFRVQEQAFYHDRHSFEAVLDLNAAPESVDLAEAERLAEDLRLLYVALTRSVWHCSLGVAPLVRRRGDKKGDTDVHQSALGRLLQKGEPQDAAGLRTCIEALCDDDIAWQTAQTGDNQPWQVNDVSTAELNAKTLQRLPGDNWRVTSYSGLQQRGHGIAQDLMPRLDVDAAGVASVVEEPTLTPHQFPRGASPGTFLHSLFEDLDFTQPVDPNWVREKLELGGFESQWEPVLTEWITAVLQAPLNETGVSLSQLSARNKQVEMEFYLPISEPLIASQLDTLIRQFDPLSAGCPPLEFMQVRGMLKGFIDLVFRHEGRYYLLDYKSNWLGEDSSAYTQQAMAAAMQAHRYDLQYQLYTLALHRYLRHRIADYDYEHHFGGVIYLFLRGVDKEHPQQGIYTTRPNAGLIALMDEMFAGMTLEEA
# Nonstructural protein 1 = Nonstructural protein 1 (Influenza A virus, UniProt Q194T2); format: functional, Influenza A virus (A/California/07/2009(H1N1))
# Nonstructural protein 1, sequence (Q194T2 whole entry): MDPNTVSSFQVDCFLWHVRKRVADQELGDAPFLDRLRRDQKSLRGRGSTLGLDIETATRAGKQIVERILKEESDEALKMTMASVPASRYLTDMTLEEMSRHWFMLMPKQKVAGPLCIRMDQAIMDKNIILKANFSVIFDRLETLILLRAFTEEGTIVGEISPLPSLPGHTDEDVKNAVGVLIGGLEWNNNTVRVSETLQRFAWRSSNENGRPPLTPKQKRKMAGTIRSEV
# [8] = Counterscreen for AddAB inhibitors: absorbance-based bacterial cell-based high throughput dose response assay for inhibitors of bacterial viability. [Related pubchem assays (depositor defined):AID435030, AID449728, AID449731, AID488942, AID488955, AID488956]; format: functional
# Galanin receptor type 3 = Galanin receptor type 3 (Homo sapiens, UniProt O60755); assay: Fluorescence-based cell-based primary high throughput dose response assay to identify antagonists of the Galanin Receptor 3 (GalR3).; format: functional
# Galanin receptor type 3, sequence (O60755 whole entry): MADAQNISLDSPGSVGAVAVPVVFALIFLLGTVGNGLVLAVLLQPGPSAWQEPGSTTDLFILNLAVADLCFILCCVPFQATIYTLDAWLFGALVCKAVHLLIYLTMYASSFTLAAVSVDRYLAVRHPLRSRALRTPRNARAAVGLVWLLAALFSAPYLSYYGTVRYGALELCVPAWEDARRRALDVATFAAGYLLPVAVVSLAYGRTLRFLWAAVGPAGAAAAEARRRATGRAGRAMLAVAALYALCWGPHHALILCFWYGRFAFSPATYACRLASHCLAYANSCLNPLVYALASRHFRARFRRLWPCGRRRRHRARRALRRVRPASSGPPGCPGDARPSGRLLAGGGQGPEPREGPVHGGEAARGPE
# cells [9] = format: functional, cell-based; details: HEK-CNG
# cells [10] = assay: cells
# [11] = T. cruzi intracellular amastigote growth inhibition, dose response, imaging, CA-I/72 strain, bovine embryo skeletal muscle, dry powder (AID 651885); format: functional, cell-based
# Paired box protein Pax-8 = Paired box protein Pax-8 (Homo sapiens, UniProt Q06710); assay: inhibitors of PAX8-driven TPO luciferase reporter, dose response, RMG-I cells, cherry-pick (AID 687027); format: functional, cell-based;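 note: luciferase reporter driven by Pax8 target thyroperoxidase promoter measured by SteadyGlo luminescence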
# Paired box protein Pax-8, sequence (Q06710 whole entry): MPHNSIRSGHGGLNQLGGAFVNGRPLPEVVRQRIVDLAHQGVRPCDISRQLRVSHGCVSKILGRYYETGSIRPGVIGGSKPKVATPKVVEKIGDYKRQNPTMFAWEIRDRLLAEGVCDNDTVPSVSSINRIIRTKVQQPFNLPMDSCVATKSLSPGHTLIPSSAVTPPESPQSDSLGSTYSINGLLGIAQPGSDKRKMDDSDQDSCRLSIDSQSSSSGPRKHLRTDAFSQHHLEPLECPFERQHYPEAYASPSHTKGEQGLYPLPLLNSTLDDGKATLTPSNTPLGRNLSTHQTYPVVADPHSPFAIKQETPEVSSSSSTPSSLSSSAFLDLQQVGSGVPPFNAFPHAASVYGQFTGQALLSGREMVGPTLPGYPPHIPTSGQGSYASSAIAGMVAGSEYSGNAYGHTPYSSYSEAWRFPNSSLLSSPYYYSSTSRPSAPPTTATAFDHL
# [12] = A2780 ovarian cancer cell cytotoxicity, dose response, cytotoxicity control, plate reader, dry powder samples (AID 743046); format: functional, cell-based
# [13] = NIH:OVCAR-3 ovarian cancer cell cytotoxicity, dose response, PAX8 inhibitor project, plate reader, dry powder samples (AID 743044); format: functional, cell-based
# [14] = IGROV1 ovarian cancer cell cytotoxicity, dose response, PAX8 inhibitor project, plate reader, dry powder samples (AID 743043); format: functional, cell-based; details: IGROV-1
# [15] = cytotoxicity in OVCAR8 ovarian cancer cells, dose response, PAX8 project, cell-based, plate reader, dry powder samples (AID 743197); format: functional; details: OVCAR-8
smiles,measurement,setting,value
COc1ccccc1NC(=O)c1cccc(NC(=O)c2ccccc2C(F)(F)F)c1,IC50,[1],1.32 µM (active)
same,IC50,[2],0.149 µM (active)
same,IC50,[3],0.042 µM (active)
CCOC(=O)c1c(CSc2ccc(C)cc2)oc2ccc(O)cc12,EC50,Mucolipin-3,4.33 µM (active)
same,EC50,Ion channel NompC,> 29.9 µM (not active)
same,AC50,[4],3.94 µM (active)
same,IC50,[5],> 69.6 µM (inactive)
C=CCN1/C(=C/c2ccc3cc(C)ccc3[n+]2CC)C=Cc2ccccc21,EC50,[6],< 0.1 µM (active)
same,EC50,[7],6.53 µM (active)
same,IC50,Exodeoxyribonuclease V,> 39.5 µM (inactive)
same,IC50,Nonstructural protein 1,11.7 µM (active)
same,IC50,[8],35.8 µM (inactive)
same,IC50,Galanin receptor type 3,> 0.123 µM (active)
same,EC50,cells [9],> 29.9 µM (inactive)
same,EC50,cells [10],0.054 µM (active)
CC(C)N1C[C@H](C)[C@@H](CN(C)C(=O)OC(C)(C)C)Oc2c(C#N)cccc2C1=O,IC50,[11],> 20 µM (inactive)
C[C@@H]1CN([C@@H](C)CO)C(=O)c2cc(NS(=O)(=O)c3ccc(F)cc3)ccc2O[C@@H](C)CCCCO[C@@H]1CN(C)Cc1ccc(C(F)(F)F)cc1,AC50,Paired box protein Pax-8,8.92 µM (active)
same,AC50,[12],62.8 µM (active)
same,AC50,[13],40.5 µM (active)
same,AC50,[14],57.6 µM (active)
same,AC50,[15],55.4 µM (active)
